# Test results reported in PMC9611726, “Synthesis, Characterization and Biological Investigation of New N-Modified Spinorphin Analogs” (Pharmaceuticals, 2022).
# Marks after values point to notes of the source that are not given here. Where a SMILES comes first, the peptide text is derived from it. [ ]: non-standard residue; d: D form. The star is where a group is joined. X1 = CCN(CC)c1ccc2c(c1)Oc1cc(N(CC)CC)ccc1C2c1ccccc1C(=O)*; Ac6c = NC1(C(=O)O)CCCCC1; Ac5c = NC1(C(=O)O)CCCC1
# Legend:
# [1] = test system: 6-Hz-induced psychomotor seizures; test: Six Hz psychomotor seizure test; format: in vivo, mice; conditions: i.c.v.; for % Protection / No. of Animals Protected/No. of Animals Tested: 6 Hz test, male ICR mice, test 10 min after administration; for anticonvulsant effect against 6-Hz-induced psychomotor seizures (in words): highest dose of 20 μg
# Excerpt: (§1) The screeing test for anticonvulsant activity of drugs was perfomed on male ICR mice (25–30 g), purchased by the vivarium of the Institute of Neurobiology, BAS. They were kept in standard laboratory conditions and cages in groups of 5–6 per cage with ad libitum access to commercial pellets for rodents and water. After a week of adaptation, all mice were allocated in groups of 6 according to their treatment and test procedure. Each mouse was used only for one experiment. All procedures were performed in agreement with the European Communities Council Directive 2010/63/EU. The experimental design was approved by the Bulgarian Food Safety Agency (#300/№ 5888–0183).
# (§2) […] The test for anticonvulsant activity was carried out 10 min after drug administration.
# The test for assessment drug effect against psychomotor seizures was performed via a constant current device and corneal electrodes as previously. The criterion for assessing the anticonvulsant activity was restoration of normal posture 10 s after stimulation. Controls (mice treated with vehicle) were unable to resume normal behavior and stimulation trigger different stereotypic responses and automatism such as sniffing, vibrissae, locomotion, Straub tail, or clonic seizures.
# (§3) For the 6-Hz test and MES a Fisher’s exact test (two-tailed) was applied. A one-way ANOVA of variance was used for the ivPTZ test and a Dunnet post hoc test in case of significance. Statistical significance was accepted at p ≤ 0.05 vs. control (Fisher’s exact test). The calculations were carried out with SigmaPlot program (11.0 version) and Graph Pad Prizm (Version 7.04) (GraphPad Software, San Diego, CA, USA).
# [2] = test system: tonic seizures (MES); test: Maximal electroshock test (MES test); format: in vivo, mice; conditions: i.c.v.; for % Mortality / % Protection / No. of Animals Protected/No. of Animals Tested: male ICR mice; for No. of Animals Protected/No. of Animals Tested: test 10 min after administration
# Excerpt: as §1, §2
# The MES test was carried out with the device used for the 6-Hz test according to the protocol reported in [38, 39]. The criterion for protection was accepted when the mouse […].
# as §3
# [3] = Partition coefficient, shake-flask method, 1-octanol/phosphate buffer; format: physicochemical; conditions: shake-flask 1-octanol/phosphate buffer (NaH2PO4/Na2HPO4), pH 7.41 ± 0.01, 25 °C, system stirred 12 h, absorbance and emission read-out, standard additions
# Excerpt: The effectiveness of biomolecules is mainly due to specific structural and physicochemical properties. In principle, the properties of peptides/proteins are very diverse and directly related to their bioactivity. […] With the manifestation of hydrophilic properties, the occurrence of a hydration process is possible; swelling, increasing their mass and volume, while it is possible to partially limit the solubility of the molecule, in which case the peptide molecule becomes more unstable. At the isoelectric point, peptides have the least ability to bind water, i.e., to hydrate; the hydration shell around the peptide molecules breaks down so that they combine to form, for example, aggregates. When the pH of the medium changes, the peptide macromolecule is charged, and its hydration capacity changes. […] Due to the obtained values, the studied compounds can be arranged in the following sequence from hydrophilic to hydrophobic (lipophilic): Rh-S > Rh-S5 > Rh-S6. This corresponds to the data from the morphology of the compound, where an analogous order of increasing porosity/hydrophilicity was found (Figure 3). It can be seen that the replacement of natural proline with unnatural steric restricted amino acids such as 1-aminocyclopentanecarboxylic acid (Ac5c) and 1-aminocyclohexanecarboxylic acid (Ac6c) (neuropeptides Rh-S5 and Rh-S6) leads to an increase in lipophilicity, which would assist passage through the brain barrier and increase the efficiency of the molecule. […]
# The partition coefficients of the spinorphin-rhodamine derivatives were determined in a 1-octanol/phosphate buffer system (NaH2PO4/Na2HPO4, pH 7.41 ± 0.01). […] After separation, the absorbance and emission of the solutions of the two phases were measured and the amount of dissolved analyte was determined by the method of standard additions. […] The partition coefficient was calculated by the following equation: P = C^oct/buf/C^buf/oct, where C^oct/buf and C^buf/oct are the molar concentrations of the solute in the mutually saturated phases of 1-octanol and buffer.
# [4] = test system: Candida albicans; test: Antifungal activity test, paper disc diffusion; format: cell-based; conditions: C. albicans, Sabouraud Agar, 20 μL of 50 mg/mL, 24 h
# Method: Tests were carried out on the Candida albicans fungus. The concentration of the extract tested was 50 mg/mL. The culture of each test fungus was taken to be tilted using an asepticose needle and rejuvenated in a liquid medium. In each medium, there is a spore density of […]. The prepared medium Sabouraud Agar (SA) in a petri dish with each culture was scratched on the top, then placed on the paper disc (paper disc), and then a peptide sample of 20 μL was placed on the paper disc. It was further incubated for 24 h and the resistance zone formed measured.
# [5] = Antioxidant activity, DPPH radical scavenging; conditions: 77 μL sample + 3 mL DPPH, 30 min in the dark, 517 nm, standard BHT
# Method: The determination of the antioxidant activity of the new peptide derivatives was carried out by inserting 77 μL of hL extract into a test tube, then adding 3 mL of DPPH solution, homogenizing, and incubating for 30 min in a dark room. The measurement of antioxidant activity was performed by a spectrophotometer with a wavelength of 517 nm. The treatment was carried out three times. The determination of activity for the standard solution was conducted by first diluting 0.025 BHT (butylated hydroxytoluene) with 1 mL of methanol. Then 3 mL of DPPH was added to 77 μL of BHT solution in a test tube, homogenized, and incubated for 30 min in a dark room. The treatment was repeated three times. For the blank, only 77 μL of methanol plus 3 mL of DPPH were used, then homogenized and incubated for 30 min in a dark room. According to Millauskas et al. (2004), the free radical scavenging activity of the sample was calculated by the formula:(3) DPPH radical concentration (%)=Acontrol− Asample/Acontrol × 100 where Acontrol is the absorbance value of the control reaction and Asample is the absorbance value in the presence of the tested extracts sample.
# [6] = mice, p ≤ 0.05 compared to control
Structure (SMILES),% Protection ([1]; dose 5 µg/10 µL),No. of Animals Protected/No. of Animals Tested ([1]; dose 5 µg/10 µL),% Protection ([1]; dose 10 µg/10 µL),No. of Animals Protected/No. of Animals Tested ([1]; dose 10 µg/10 µL),% Protection ([1]; dose 20 µg/10 µL),No. of Animals Protected/No. of Animals Tested ([1]; dose 20 µg/10 µL),"anticonvulsant effect against 6-Hz-induced psychomotor seizures (in words) [1, 6]","% Mortality ([2]; MES test, dose 5 µg/10 µL)","% Protection ([2]; MES test, dose 5 µg/10 µL)","% Mortality ([2]; MES test, dose 10 µg/10 µL)","% Protection ([2]; MES test, dose 10 µg/10 µL)","No. of Animals Protected/No. of Animals Tested ([2]; MES test, dose 10 µg/10 µL)","% Mortality ([2]; MES test, dose 20 µg/10 µL)","% Protection ([2]; MES test, dose 20 µg/10 µL)","No. of Animals Protected/No. of Animals Tested ([2]; MES test, dose 20 µg/10 µL)",logD [3],"antifungal activity, diameter of the inhibitory zone (in words) [4]",antioxidant activity compared to the positive control (in words) [5],"No. of Animals Protected/No. of Animals Tested ([2]; MES test, dose 5 µg/10 µL)",further results
"CCN(CC)c1ccc2c(c1)Oc1cc(N(CC)CC)ccc1C2c1ccccc1C(=O)N[C@@H](CC(C)C)C(=O)N[C@H](C(=O)N[C@H](C(=O)N[C@@H](Cc1ccc(O)cc1)C(=O)NC1(C(=O)N[C@@H](Cc2c[nH]c3ccccc23)C(=O)N[C@H](C(N)=O)[C@@H](C)O)CCCC1)C(C)C)C(C)C [Rh-S5, rhodamineB-Leu-Val-Val-Tyr-Ac5c-Trp-Thr-NH2] (X1-LVVY[Ac5c]WT-NH2)",17%,1/6,33%,2/6,83 * %,5/6,significant anticonvulsant effect,17%,41%,17%,42%,5/12,17%,67 * %,4/6,-0.168,slightly higher than the negative control,weak,–,"protective potency against tonic seizures (in words) ([2]; MES test, mice, dose of 20 µg, p ≤ 0.05 compared to control): stronger protective potency compared to the heptapeptide Rh-S"
"CCN(CC)c1ccc2c(c1)Oc1cc(N(CC)CC)ccc1C2c1ccccc1C(=O)N[C@@H](CC(C)C)C(=O)N[C@H](C(=O)N[C@H](C(=O)N[C@@H](Cc1ccc(O)cc1)C(=O)NC1(C(=O)N[C@@H](Cc2c[nH]c3ccccc23)C(=O)N[C@H](C(N)=O)[C@@H](C)O)CCCCC1)C(C)C)C(C)C [Rh-S6, rhodamineB-Leu-Val-Val-Tyr-Ac6c-Trp-Thr-NH2] (X1-LVVY[Ac6c]WT-NH2)",33%,2/6,50%,3/6,67 * %,4/6,significant anticonvulsant effect,0%,100 * %,0%,100 * %,6/6,0%,100 * %,6/6,-0.197,slightly higher than the negative control,similar,6/6,"mortality in the MES test (in words) ([2]; mice, at the three doses studied (5, 10 and 20 μg)): no mortality; protection in the MES test ([2]; mice, at the three doses studied (5, 10 and 20 μg), p ≤ 0.05 compared to control): 100%"
"CCN(CC)c1ccc2c(c1)Oc1cc(N(CC)CC)ccc1C2c1ccccc1C(=O)N[C@@H](CC(C)C)C(=O)N[C@H](C(=O)N[C@H](C(=O)N[C@@H](Cc1ccc(O)cc1)C(=O)N1CCC[C@H]1C(=O)N[C@@H](Cc1c[nH]c2ccccc12)C(=O)N[C@H](C(N)=O)[C@@H](C)O)C(C)C)C(C)C [Rh-S, rhodamineB-Leu-Val-Val-Tyr-Pro-Trp-Thr-NH2] (X1-LVVYPWT-NH2)",67 * %,4/6,100 * %,6/6,67 * %,4/6,–,50%,50%,0%,50%,3/6,33%,67 * %,4/6,0.54,slightly higher than the negative control,similar,3/6,"protection against 6-Hz-induced psychomotor seizures (in words) ([1]; mice, at the three doses used (5, 10, and 20 μg), p ≤ 0.05 compared to control): significant protection"
